What was measured:
CYP1A2 = target: T1, CYP1A2 (Homo sapiens, UniProt P05177); assay: in vitro
T1 sequence (P05177 1-516): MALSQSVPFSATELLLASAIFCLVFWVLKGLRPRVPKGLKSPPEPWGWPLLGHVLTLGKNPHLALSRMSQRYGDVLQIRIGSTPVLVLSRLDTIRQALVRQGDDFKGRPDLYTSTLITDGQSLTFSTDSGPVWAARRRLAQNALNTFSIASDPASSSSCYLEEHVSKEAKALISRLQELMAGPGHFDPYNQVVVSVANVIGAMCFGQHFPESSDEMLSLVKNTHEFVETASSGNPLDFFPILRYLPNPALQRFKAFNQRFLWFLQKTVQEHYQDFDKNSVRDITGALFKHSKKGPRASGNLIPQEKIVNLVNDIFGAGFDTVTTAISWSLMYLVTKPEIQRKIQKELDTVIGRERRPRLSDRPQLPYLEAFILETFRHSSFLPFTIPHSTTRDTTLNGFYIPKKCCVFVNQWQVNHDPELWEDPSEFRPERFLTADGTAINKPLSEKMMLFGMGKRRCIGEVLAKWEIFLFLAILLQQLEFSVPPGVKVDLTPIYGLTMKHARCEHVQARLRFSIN
Procedure: (§1) Cytochrome P450 Inhibition Assay
(§2) Analyses were performed using standard LC/MS/MS protocols.

CYP2C9 = CYP2C9 (Homo sapiens, UniProt P11712); assay: in vitro
Procedure: as §1, §2

CYP3A4 = CYP3A4 (Homo sapiens, UniProt P08684); assay: in vitro
Procedure: as §1, §2

in vitro = details: Control buffer/Buffer at 0.1 uM % Recovery
Procedure: (§3) An equilibrium dialysis (HTDialysis) method was used employing 50% plasma collected from CD-1 mice or Sprague-Dawley rats and incubated with K2EDTA. Test articles were assessed at 1 microM concentration in three replicates. Incubation time as 5 hours and plasma and buffer standards were assessed using LC/MS/MS. Percentage recovery was calculated as (Cbuffer+Cplasma)/[average]Cinitial, [average]Cinitial being measured in triplicate from the test samples prior to dialysis. Percentage of compound unbound was calculated as Cbuffer/Cplasma.

plasma proteins [1] = assay: in vitro; details: CD-1, mouse
Procedure: as §3

CYP2D6 = CYP2D6 (Homo sapiens, UniProt P10635); assay: in vitro
[2] = Plasma protein binding determination, equilibrium dialysis, mouse plasma; details: first table; buffer/buffer control
Procedure: as §3

plasma proteins [3] = assay: as above; details: CD-1, mouse, % recovery, Mouse plasma, equilibrium dialysis
Procedure: as §3

[4] = target: T2, Recombinant human integrin α4β7 (Homo sapiens, UniProt P13612+P26010, DEL724-798); assay: Integrin α4β7—MAdCAM-1 ELISA competition assay; type: binding; details: ratio a4b1 ELISA IC50 / a4b7 ELISA IC50
T2 construct: purchased R&D Systems 5397-A3-050
T2 sequence (P13612 34-977 limits assumed): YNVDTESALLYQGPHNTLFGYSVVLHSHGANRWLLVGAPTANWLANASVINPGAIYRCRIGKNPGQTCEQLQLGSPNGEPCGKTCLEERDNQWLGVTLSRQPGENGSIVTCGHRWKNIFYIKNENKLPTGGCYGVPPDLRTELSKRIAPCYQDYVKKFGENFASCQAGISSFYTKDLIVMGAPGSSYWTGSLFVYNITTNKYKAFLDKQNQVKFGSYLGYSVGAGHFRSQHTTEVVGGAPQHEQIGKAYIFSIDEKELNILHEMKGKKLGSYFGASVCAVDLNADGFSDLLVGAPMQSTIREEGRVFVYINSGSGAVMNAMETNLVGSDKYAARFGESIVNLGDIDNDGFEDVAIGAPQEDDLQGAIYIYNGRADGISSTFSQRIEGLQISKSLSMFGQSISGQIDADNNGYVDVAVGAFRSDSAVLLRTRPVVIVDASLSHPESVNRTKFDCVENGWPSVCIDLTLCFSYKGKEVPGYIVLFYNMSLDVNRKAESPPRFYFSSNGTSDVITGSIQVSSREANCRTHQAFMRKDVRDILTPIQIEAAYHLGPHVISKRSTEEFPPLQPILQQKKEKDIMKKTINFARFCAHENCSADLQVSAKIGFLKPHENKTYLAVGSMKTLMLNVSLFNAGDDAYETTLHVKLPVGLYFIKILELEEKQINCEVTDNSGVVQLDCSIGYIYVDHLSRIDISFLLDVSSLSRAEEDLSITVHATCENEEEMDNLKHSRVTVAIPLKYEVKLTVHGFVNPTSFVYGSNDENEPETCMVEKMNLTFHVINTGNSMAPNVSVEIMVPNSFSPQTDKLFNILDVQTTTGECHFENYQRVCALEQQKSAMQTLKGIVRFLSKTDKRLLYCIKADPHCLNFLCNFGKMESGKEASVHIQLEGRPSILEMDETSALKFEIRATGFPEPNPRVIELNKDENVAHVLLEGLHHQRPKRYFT
T2 sequence (P26010 20-723 limits assumed): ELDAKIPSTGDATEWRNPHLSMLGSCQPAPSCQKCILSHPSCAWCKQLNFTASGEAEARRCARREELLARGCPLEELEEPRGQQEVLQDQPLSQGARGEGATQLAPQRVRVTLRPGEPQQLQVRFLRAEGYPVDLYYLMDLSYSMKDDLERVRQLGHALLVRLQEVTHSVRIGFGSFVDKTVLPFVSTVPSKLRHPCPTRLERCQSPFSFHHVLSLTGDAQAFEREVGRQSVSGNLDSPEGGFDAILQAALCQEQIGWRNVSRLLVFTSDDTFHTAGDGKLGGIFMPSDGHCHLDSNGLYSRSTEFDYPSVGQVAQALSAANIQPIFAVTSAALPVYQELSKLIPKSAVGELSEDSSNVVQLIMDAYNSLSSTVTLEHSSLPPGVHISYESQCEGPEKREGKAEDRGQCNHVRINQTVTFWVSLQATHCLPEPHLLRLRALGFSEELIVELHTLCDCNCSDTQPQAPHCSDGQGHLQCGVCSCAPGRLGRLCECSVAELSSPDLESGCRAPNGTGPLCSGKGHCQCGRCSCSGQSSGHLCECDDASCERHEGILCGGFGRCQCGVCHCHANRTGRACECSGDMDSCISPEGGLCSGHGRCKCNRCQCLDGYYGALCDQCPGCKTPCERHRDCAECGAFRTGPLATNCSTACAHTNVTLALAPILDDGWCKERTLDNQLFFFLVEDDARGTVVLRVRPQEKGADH
Procedure: Integrin α4β7—MAdCAM-1 ELISA Competition Assay
Protocol • 1.1 Preparation of α4β7. • 1.1.1 Add 500 μL of PBS to the vial. […] Mix by inversion before use. Keep at 4° C. for up to 1 month. • Final concentration is 100 pg/mL • 1.1 Preparation of MadCam-Fc. • 1.1.1 Add 500 μL of Assay buffer to the vial. […] Mix by inversion before use.

[5] = system: DSS experimental model of ulcerative colitis; assay: 8-Day efficacy study in DSS model (therapeutic); type: in vivo, C57BI/6 mice; details: 40 mg/kg p.o.
Source text: The STDs in ascending order bracketing the study samples and dosing solutions • 1. The study samples • 2.
Description of Tested Compounds
Animals. Female C57BI/6 mice (Charles River, St-Constant, Qc), weighting 16-19 g at delivery were used for this study. Following arrival in the animal facility, all animals were subjected to a general health evaluation. An acclimation period of 7-14 days was allowed before the beginning of the study.
Oral dosing of the test article and the vehicle. From Day 5 to Day 8, nacellins and the vehicle were administered as a single slow bolus (over approximately 5 seconds) via oral route (p.o.), according to the procedure of administration of solution by gavage: the animal was firmly restrained. A bulb-tipped gastric gavage needle of 22G was passed through the side of the mouth and was advanced towards the oesophagus. The test articles and the vehicle were dosed orally at 5 mL/kg.
Intraperitoneal dosing of the test articles and the vehicle. On day 5, DATK32 antibody was administered in only on Day 5, as a single slow bolus (over approximately 5 seconds) via the i.p. route. […] Intraperitoneal administration was performed accordingly to the following procedure: the mouse was restrained manually and held with the head and body tilted downward. The tip of the needle (27 G) was inserted through the skin and just past the abdominal wall. A short pull back of the plunger of the syringe was done prior to administration of the solution to make sure that the syringe was not inserted in any abdominal organ (fluid would be pulled back into the syringe in this case).
Inflammation Score. Once the mouse was euthanized, the colon was collected and its length was measured. Lesion length was also measured. Colon inflammation was scored based on severity of oedema and ulceration.
Disease Activity Index (DAI) assessment. Body weight and DAI were measured on Day 5 in order to distribute DSS-treated animals in two uniform groups prior dosing. Specific symptoms associated to UC were scored based on the severity of each particular symptoms: 1—blood in stool (negative hemoccult, positive hemoccult, blood traces in stool visible, rectal bleeding); 2—stool consistency (normal, soft but still formed, very soft, diarrhea); 3—posture and fur (normal; ruffled fur; ruffled fur combined to slight hunched posture and slight dehydration; ruffled fur combined to hunched posture, dehydration and altered walking; moribund (euthanasia is mandatory before the animal reach this point). The overall DAI score was the sum of the three parameters (maximum score 9). Body weight measurement and DAI assessment were performed also on Day 8 to evaluate the effect of the treatments.
Collection of samples. On Day 8, five hours after ET02451-01, ET02452-01 and vehicle dosing, the animals were euthanized by cardiac puncture under general anesthesia, according to the “Guide to the Care and Use of Experimental Animals” published by the CCAC. Blood was transferred in a Sarstedt tube containing EDTA. Mesenteric and peripheral (inguinal, auxiliary and brachial) lymph nodes were collected and transferred on ice in corresponding tubes containing cold PBS. Nodes were kept on ice until tissue preparation.
Cell population labeling. Blood was withdrawn by cardiac puncture and collected on EDTA-coated tubes. Mensenteric lymph nodes (MLN) and peripheral lymph nodes (PLN) were also collected. Mononuclear cells from the tissues will be isolated using density gradient (Lympholyte) and they were stained with fluorescent antibodies. […] After washes, cells were fixed using BD Fix Solution. Percentage of different subpopulations of T lymphocytes were then analysed using FACSCalibur cytometer. Antibodies employed were the same as listed for the single-dose PD studies above.

[6] = mouse, in vivo
Procedure: (§4) In Vivo Pharmacokinetic Assessments in Rodents
(§5) Oral bioavailability of test compounds was conducted by assessing plasma exposure of following one or two oral doses in mice and, in some cases, comparing said plasma exposure with that following a single intravenous dose of the same compound.
(§6) Body weights were recorded on the day of dosing.
(§7) Food restriction: Animals dosed p.o. were deprived of food overnight and fed ˜2 h following dosing.
(§8) Dosing: The formulation containing the test compound were administered p.o. by gavage with disposable feeding needles.
(§9) Sample collection: Terminal blood and tissue samples were collected under O2/CO2 anesthesia by cardiac puncture.
(§10) Sample processing/storage: All blood samples were transferred into K2EDTA tubes on wet ice and centrifuged within 5 min (3200×g for 5 min at 4° C.) to obtain plasma. Samples were stored frozen at −80° C. until bioanalysis.
(§11) Bioanalytical Method Qualification and Sample Analysis:
(§12) Instrumentation: AB Sciex API 4000 Q-TRAP MS/MS system equipped with an Agilent LC system with a binary pump, a solvent degasser, a thermostatted column compartment, a CTC autosampler and a divert valve installed between the column and mass spectrometer inlet.

in vivo = details: male, CD-1, mouse
Procedure: as §4, §5, §6, §7, §8, §9, §10, §11, §12

[7] = In vivo pharmacokinetic assessments in rodents; details: for F: plasma
Procedure: as §4, §5, §6, §7, §8, §9, §10, §11, §12

Chain of CYP3A4 (P08684 whole entry): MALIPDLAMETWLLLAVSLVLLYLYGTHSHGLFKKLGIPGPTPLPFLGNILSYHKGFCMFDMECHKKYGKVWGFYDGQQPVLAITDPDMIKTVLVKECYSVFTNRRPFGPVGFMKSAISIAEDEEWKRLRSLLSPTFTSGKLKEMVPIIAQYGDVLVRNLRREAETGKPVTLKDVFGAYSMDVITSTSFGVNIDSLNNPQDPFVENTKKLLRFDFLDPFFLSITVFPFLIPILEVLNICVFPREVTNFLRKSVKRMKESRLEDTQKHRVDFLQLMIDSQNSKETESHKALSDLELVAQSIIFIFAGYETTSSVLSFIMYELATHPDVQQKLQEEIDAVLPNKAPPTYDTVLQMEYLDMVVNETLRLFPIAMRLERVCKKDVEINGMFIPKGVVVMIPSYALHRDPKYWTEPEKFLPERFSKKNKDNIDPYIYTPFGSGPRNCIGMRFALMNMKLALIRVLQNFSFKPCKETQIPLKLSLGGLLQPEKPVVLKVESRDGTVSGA
Chain of CYP2C9 (P11712 whole entry): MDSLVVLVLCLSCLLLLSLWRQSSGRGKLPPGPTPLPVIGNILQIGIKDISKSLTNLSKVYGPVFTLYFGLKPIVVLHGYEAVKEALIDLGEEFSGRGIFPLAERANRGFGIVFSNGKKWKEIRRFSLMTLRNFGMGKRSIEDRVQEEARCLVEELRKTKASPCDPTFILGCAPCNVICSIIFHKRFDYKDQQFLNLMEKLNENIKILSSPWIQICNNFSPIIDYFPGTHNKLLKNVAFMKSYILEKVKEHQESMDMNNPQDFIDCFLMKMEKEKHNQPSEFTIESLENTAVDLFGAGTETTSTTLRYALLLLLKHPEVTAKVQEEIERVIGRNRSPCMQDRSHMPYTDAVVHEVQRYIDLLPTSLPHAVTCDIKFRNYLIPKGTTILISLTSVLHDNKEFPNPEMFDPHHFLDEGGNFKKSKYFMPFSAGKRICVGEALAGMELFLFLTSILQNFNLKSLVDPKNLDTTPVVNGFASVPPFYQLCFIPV
Chain of CYP2D6 (P10635 whole entry): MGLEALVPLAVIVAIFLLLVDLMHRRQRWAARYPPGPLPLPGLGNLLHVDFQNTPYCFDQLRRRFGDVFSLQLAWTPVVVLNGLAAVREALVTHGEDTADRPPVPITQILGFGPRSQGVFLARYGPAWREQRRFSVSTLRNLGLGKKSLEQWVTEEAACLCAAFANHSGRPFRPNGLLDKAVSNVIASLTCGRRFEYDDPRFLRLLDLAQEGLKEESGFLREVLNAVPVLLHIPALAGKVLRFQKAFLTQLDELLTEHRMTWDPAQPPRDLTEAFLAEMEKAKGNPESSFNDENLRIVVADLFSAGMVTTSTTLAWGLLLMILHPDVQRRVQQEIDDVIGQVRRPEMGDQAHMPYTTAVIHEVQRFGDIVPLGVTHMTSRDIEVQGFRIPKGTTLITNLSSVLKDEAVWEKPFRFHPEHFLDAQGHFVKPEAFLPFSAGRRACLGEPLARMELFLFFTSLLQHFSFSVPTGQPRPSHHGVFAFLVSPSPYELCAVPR

CC[C@H](C)[C@@H]1NC(=O)[C@H](CC(=O)O)NC(=O)[C@H](CC(C)C)NC(=O)[C@H](Cc2ccc3ccccc3c2)NC(=O)[C@@H]2CCCN2[C@H](C(=O)NC(C)(C)C)[C@H](C)NC1=O [Compound No. 15]
IC50 (CYP1A2): > 15 µM
IC50 (CYP2C9): > 15 µM
IC50 (CYP3A4): > 15 µM
recovery at 5 hours, 0.1 uM (in vitro): 70%
fraction unbound at 5 hours, 1 microM (plasma proteins [1]; % unbound (Cbuffer/Cplasma) 1): 0.1
fraction unbound at 5 hours, 1 microM (plasma proteins [1]; % unbound (Cbuffer/Cplasma) 2): 0.093
fraction unbound at 5 hours, 1 microM (plasma proteins [1]; % unbound (Cbuffer/Cplasma) 3): 0.136
IC50 (CYP2D6): > 15 µM
Control buffer/Buffer at 0.1 uM Cdonor/Creciever [2]: 86%
recovery at 5 hours, 1 microM (plasma proteins [3]; first table): 103%
recovery at 5 hours, 1 microM (plasma proteins [3]; second table): 143%

CC(C)C[C@@H]1NC(=O)[C@H]2CCCCN2C(=O)[C@H](Cc2ccc(O)cc2)N(C)C(=O)[C@@H]2CCCN2[C@H](C(=O)NC(C)(C)C)[C@H](C)NC(=O)[C@H]([C@@H](C)O)NC(=O)[C@H](CC(=O)O)NC1=O [Compound 148]
Selectivity ELISA [4]: 1.2

COc1ccccc1-c1ccccc1C[C@@H]1NC(=O)[C@@H]2CCCN2[C@H](C(=O)NC(C)(C)C)[C@H](C)NC(=O)[C@H]([C@@H](C)O)NC(=O)[C@H](CC(=O)O)NC(=O)[C@H](CC(C)C)NC(=O)[C@H]2CCCCN2C1=O [Compound 135]
Selectivity ELISA [4]: 4.9

CC(C)C[C@@H]1NC(=O)c2ccc(-c3ccc(N4CCNCC4)cc3)c(c2)CNC(=O)[C@@H]2CCCN2[C@H](C(=O)NC(C)(C)C)[C@H](C)NC(=O)[C@H]([C@@H](C)O)NC(=O)[C@H](CC(=O)O)NC1=O [Compound No. 340]
CD3+CD4+α4β7+ cell population in mesenteric lymph nodes [5]: significant decrease
reduction of lesion length vs vehicle group ([5]; Day 5 to Day 8): significantly reduced the lesion length
reduction of DAI score on Day 8 vs DSS+vehicle ([5]; b.i.d., Day 5 to Day 8): 15%
lesion/colon length ([5]; vehicle group 40%): 12%
oral bioavailability (in words) [6]: significant absorption from the gut and systemic exposure
bioavailability (in vivo): ~11%
AUC(0-inf) (in vivo; iv, 5 mg/kg): 778 ng·h/mL
C0 (in vivo; iv, 5 mg/kg): 1410 ng/mL
Cmax (in vivo; iv, 5 mg/kg): 1330 ng/mL
MRT inf (in vivo; iv, 5 mg/kg): 41.9 min
Vd (in vivo; iv, 5 mg/kg): 4.49 L/kg
clearance (in vivo; iv, 5 mg/kg): 107 mL/min/kg
half-life (in vivo; iv, 5 mg/kg): 120 min
AUC(0-inf) (in vivo; po, 40 mg/kg): 690 ng·h/mL
AUC(0-t) (in vivo; po, 40 mg/kg): 686 ng·h/mL
MRT inf (in vivo; po, 40 mg/kg): 41.3 min
half-life (in vivo; po, 40 mg/kg): 32.2 min
half-life in the liver ([7]; following oral dosing 40 mg/kg): ~480 min
AUC(0-t) ([7]; male, CD-1, mouse, in vivo, iv, 5 mg/kg): 778 ng·h/mL
Tmax ([7]; male, CD-1, mouse, in vivo, po, 40 mg/kg): 5 min
half-life ([7]; male, CD-1, mouse, in vivo, po, 40 mg/kg, elimination half-life in plasma, following oral dosing 40 mg/kg): ~30 min
half-life ([7]; male, CD-1, mouse, in vivo, po, 40 mg/kg, half-life in colon, following oral dosing 40 mg/kg): > 1260 min
F ([7]; i.v. 5 mg/kg): 100%
F ([7]; p.o. 40 mg/kg): 11.0%

Reference: US20210300932A1, “CYCLIC PEPTIDES TARGETING ALPHA-4-BETA-7 INTEGRIN” (Zealand Pharma A/S, priority 2015, published 2021)
